Test: Evaluation of water solubility (appearance of water dispersion)
Type: physicochemical
Conditions: 1.500 g e-As4S4 of Embodiment 5 or 100 mg r-As4S4 powder in 10 mL ddH2O; FIG. 1
Method: 1.500 grams of e-As4S4 of Embodiment 5 and 100 mg of the r-As4S4 powder were weighed and added in 10 mL of double distilled water (ddH2O), respectively to obtain the water dispersion solution of e-As4S4 and r-As4S4.

S1[As]2S[As]3S[As]2S[As]13 [r-As4S4, As4S4]
dissolution in ddH2O (appearance of the suspension): hardly to dissolve in water
